Assay results published in BindingDB's records for doi:10.1021/jm990383f (Upjohn, 2000).

Key:
[1] = molecular target: T1, Gag-Pol polyprotein [588-1027]/[588-1147] (Human immunodeficiency virus 1, UniProt P04585); assay: HIV-1 RT Assay; details: pH 8.3; 28 °C
T1 construct: 588-1027; 588-1147
From the text: (§1) The IC50 of reverse transcriptase is the concentration that inhibits 50% of recombinant HIV-1 RT RNA-directed DNA polymerase activity in vitro.

[2] = molecular target: T2, Gag-Pol polyprotein [588-1027,P823L]/[588-1147,P823L] (Human immunodeficiency virus 1, UniProt P04585, P823L); assay: HIV-1 RT Assay; details: pH 8.3; 28 °C
T2 construct: 588-1027; 588-1147
From the text: as §1

SMILES	IC50 [1] [µM]	IC50 [2] [nM]
C#CCc1c(C)nn(-c2ccccc2)c1-c1ccccc1 [3-methyl-1,5-diphenyl-4-(prop-2-yn-1-yl)-1H-pyrazole]	13.4	1540
CCc1c(CCO)nn(-c2ccccc2)c1-c1ccccc1 [1,5-Diphenyl-3-(2-hydroxyethyl)-4-ethylpyrazole]	> 50	–
